Source: PubChem BioAssay (NCI)
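Interpolation was linear, between the two tested concentrations surrounding the appropriate level; five concentrations were tested over 48 hours in 96-well plates. At the GI50, growth is halved. Definition used: TGI = concentration required for complete inhibition of growth.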

Tests used:
Assay in all cases: NCI anticancer screen, dose series, 48 h
[1] = tested on: UACC-257 melanoma
[2] = tested on: UO-31 renal
[3] = tested on: K-562 leukemia
[4] = tested on: HOP-62 NSCLC
[5] = tested on: MDA-MB-435
[6] = tested on: SW-620 colon
[7] = tested on: SN12C renal
[8] = tested on: NCI/ADR-RES ovarian
[9] = tested on: RXF 393 renal
[10] = tested on: CCRF-CEM leukemia
[11] = tested on: KM12 colon
[12] = tested on: CAKI-1 renal
[13] = tested on: SF-268 CNS
[14] = tested on: COLO 205 colon
[15] = tested on: LOX IMVI melanoma
[16] = tested on: RPMI-8226 leukemia
[17] = tested on: UACC-62 melanoma
[18] = tested on: U251 CNS
[19] = tested on: OVCAR-8 ovarian
[20] = tested on: HT29 colon
[21] = tested on: IGROV1 ovarian
[22] = tested on: MDA-MB-231 breast
[23] = tested on: NCI-H23 lung
[24] = tested on: SNB-75 CNS
[25] = tested on: HOP-92 NSCLC
[26] = tested on: NCI-H226 lung
[27] = tested on: M14 melanoma
[28] = tested on: SR leukemia
[29] = tested on: TK-10 renal
[30] = tested on: HCT-15 colon
[31] = tested on: T-47D breast
[32] = tested on: HL-60(TB) leukemia
[33] = tested on: MALME-3M melanoma
[34] = tested on: A549 NSCLC
[35] = tested on: DU-145 prostate
[36] = tested on: SF-295 CNS
[37] = tested on: 786-0 renal
[38] = tested on: SK-MEL-28 melanoma
[39] = tested on: HCT-116 colon
[40] = tested on: SK-MEL-2 melanoma
[41] = tested on: SF-539 CNS
[42] = tested on: NCI-H460 lung
[43] = tested on: OVCAR-3 ovarian
[44] = tested on: HCC-2998 colon
[45] = tested on: SNB-19 CNS
[46] = tested on: SK-OV-3 ovarian
[47] = tested on: A498 renal
[48] = tested on: MCF7 breast
[49] = tested on: ACHN renal
[50] = tested on: SK-MEL-5 melanoma
[51] = tested on: BT-549 breast
[52] = tested on: OVCAR-5 ovarian
[53] = tested on: OVCAR-4 ovarian
[54] = tested on: NCI-H522 lung
[55] = tested on: PC-3 prostate
[56] = tested on: EKVX NSCLC
[57] = tested on: HS 578T breast

Q: How did the GI50 [1] turn out when O=C1OCC(C#Cc2ccccc2)=C1Br was run?
A: The GI50 was 8.26 µM.

Q: What about the TGI [1] of the same compound?
A: Its TGI is 28.2 µM.

Q: And the GI50 [2]?
A: Its GI50 is 7.66 µM.

Q: And the TGI [2]?
A: Its TGI is 22.7 µM.

Q: What about the GI50 [3] of the same compound?
A: The GI50 was 2.63 µM.

Q: What about the TGI [3] of the same compound?
A: The TGI was 11.6 µM.

Q: And the GI50 [4]?
A: The GI50 was 13.2 µM.

Q: And the TGI [4]?
A: Its TGI is 38.2 µM.

Q: What about the GI50 [5] of the same compound?
A: The GI50 was 10.8 µM.

Q: What about the TGI [5] of the same compound?
A: Its TGI is 48.3 µM.

Q: What about the GI50 [6] of the same compound?
A: The GI50 was 1.72 µM.

Q: What about the TGI [6] of the same compound?
A: Its TGI is 5.75 µM.

Q: And the GI50 [7]?
A: The GI50 was 3.14 µM.

Q: And the TGI [7]?
A: Its TGI is 14.1 µM.

Q: What about the GI50 [8] of the same compound?
A: Its GI50 is 6.25 µM.

Q: What about the TGI [8] of the same compound?
A: The TGI was > 63.2 µM.

Q: And the GI50 [9]?
A: Its GI50 is 3.96 µM.

Q: And the TGI [9]?
A: Its TGI is 31.8 µM.

Q: What about the GI50 [10] of the same compound?
A: Its GI50 is 1.1 µM.

Q: What about the TGI [10] of the same compound?
A: Its TGI is 5.58 µM.

Q: What about the GI50 [11] of the same compound?
A: The GI50 was 3.64 µM.

Q: What about the TGI [11] of the same compound?
A: The TGI was 15 µM.

Q: And the GI50 [12]?
A: The GI50 was 5.61 µM.

Q: And the TGI [12]?
A: The TGI was 13.4 µM.

Q: What about the GI50 [13] of the same compound?
A: Its GI50 is 4.76 µM.

Q: What about the TGI [13] of the same compound?
A: The TGI was 20.6 µM.

Q: And the GI50 [14]?
A: The GI50 was 5.35 µM.

Q: What about the TGI [14] of the same compound?
A: Its TGI is > 54.7 µM.

Q: And the GI50 [15]?
A: The GI50 was 3.15 µM.

Q: And the TGI [15]?
A: Its TGI is > 35.9 µM.

Q: What about the GI50 [16] of the same compound?
A: The GI50 was 0.648 µM.

Q: What about the TGI [16] of the same compound?
A: The TGI was 3.09 µM.

Q: What about the GI50 [17] of the same compound?
A: The GI50 was 10.7 µM.

Q: And the TGI [17]?
A: Its TGI is 26.1 µM.

Q: And the GI50 [18]?
A: Its GI50 is 4.88 µM.

Q: And the TGI [18]?
A: The TGI was > 39.3 µM.

Q: And the GI50 [19]?
A: Its GI50 is 2.27 µM.

Q: And the TGI [19]?
A: Its TGI is 7.26 µM.

Q: And the GI50 [20]?
A: The GI50 was 7.67 µM.

Q: What about the TGI [20] of the same compound?
A: The TGI was 97.4 µM.

Q: And the GI50 [21]?
A: The GI50 was 4.77 µM.

Q: What about the TGI [21] of the same compound?
A: Its TGI is 33.5 µM.

Q: What about the GI50 [22] of the same compound?
A: The GI50 was 3.12 µM.

Q: What about the TGI [22] of the same compound?
A: The TGI was 14.8 µM.

Q: What about the GI50 [23] of the same compound?
A: Its GI50 is 2.94 µM.

Q: What about the TGI [23] of the same compound?
A: The TGI was 9.5 µM.

Q: What about the GI50 [24] of the same compound?
A: Its GI50 is 18.1 µM.

Q: And the TGI [24]?
A: The TGI was > 100 µM.

Q: And the GI50 [25]?
A: Its GI50 is 3.93 µM.

Q: What about the TGI [25] of the same compound?
A: Its TGI is 13.4 µM.

Q: What about the GI50 [26] of the same compound?
A: Its GI50 is 23.1 µM.

Q: What about the TGI [26] of the same compound?
A: Its TGI is 72 µM.

Q: And the GI50 [27]?
A: The GI50 was 2.83 µM.

Q: And the TGI [27]?
A: Its TGI is 16 µM.

Q: What about the GI50 [28] of the same compound?
A: The GI50 was 0.186 µM.

Q: And the TGI [28]?
A: The TGI was > 100 µM.

Q: What about the GI50 [29] of the same compound?
A: The GI50 was 0.929 µM.

Q: And the TGI [29]?
A: Its TGI is 17.1 µM.

Q: And the GI50 [30]?
A: Its GI50 is 3.96 µM.

Q: And the TGI [30]?
A: Its TGI is > 38.4 µM.

Q: What about the GI50 [31] of the same compound?
A: The GI50 was 16.3 µM.

Q: What about the TGI [31] of the same compound?
A: The TGI was > 67.5 µM.

Q: What about the GI50 [32] of the same compound?
A: The GI50 was 0.0201 µM.

Q: And the TGI [32]?
A: The TGI was 0.384 µM.

Q: What about the GI50 [33] of the same compound?
A: Its GI50 is 2.18 µM.

Q: What about the TGI [33] of the same compound?
A: Its TGI is 9.33 µM.

Q: And the GI50 [34]?
A: Its GI50 is 16.7 µM.

Q: And the TGI [34]?
A: The TGI was 34.6 µM.

Q: What about the GI50 [35] of the same compound?
A: The GI50 was 3.42 µM.

Q: And the TGI [35]?
A: The TGI was 13.2 µM.

Q: And the GI50 [36]?
A: The GI50 was 17.7 µM.

Q: What about the TGI [36] of the same compound?
A: Its TGI is 48.8 µM.

Q: What about the GI50 [37] of the same compound?
A: Its GI50 is 2.58 µM.

Q: What about the TGI [37] of the same compound?
A: The TGI was 12.5 µM.

Q: What about the GI50 [38] of the same compound?
A: The GI50 was 4.75 µM.

Q: And the TGI [38]?
A: The TGI was > 100 µM.

Q: What about the GI50 [39] of the same compound?
A: The GI50 was 0.541 µM.

Q: And the TGI [39]?
A: Its TGI is > 31.6 µM.

Q: And the GI50 [40]?
A: Its GI50 is 18.8 µM.

Q: And the TGI [40]?
A: Its TGI is 52.4 µM.

Q: What about the GI50 [41] of the same compound?
A: Its GI50 is 2.42 µM.

Q: And the TGI [41]?
A: Its TGI is 9.81 µM.

Q: What about the GI50 [42] of the same compound?
A: Its GI50 is 19.5 µM.

Q: And the TGI [42]?
A: Its TGI is 48.5 µM.

Q: And the GI50 [43]?
A: Its GI50 is 1.77 µM.

Q: And the TGI [43]?
A: Its TGI is 8.9 µM.

Q: What about the GI50 [44] of the same compound?
A: The GI50 was 19.3 µM.

Q: What about the TGI [44] of the same compound?
A: The TGI was 37.3 µM.

Q: And the GI50 [45]?
A: Its GI50 is 21.5 µM.

Q: And the TGI [45]?
A: Its TGI is > 68.8 µM.

Q: And the GI50 [46]?
A: The GI50 was 52.9 µM.

Q: What about the TGI [46] of the same compound?
A: Its TGI is > 100 µM.

Q: What about the GI50 [47] of the same compound?
A: The GI50 was 19.3 µM.

Q: What about the TGI [47] of the same compound?
A: Its TGI is 54.5 µM.

Q: And the GI50 [48]?
A: The GI50 was 2.69 µM.

Q: What about the TGI [48] of the same compound?
A: Its TGI is 12.8 µM.

Q: And the GI50 [49]?
A: The GI50 was 9.34 µM.

Q: And the TGI [49]?
A: The TGI was > 43.9 µM.

Q: What about the GI50 [50] of the same compound?
A: Its GI50 is 1.82 µM.

Q: What about the TGI [50] of the same compound?
A: Its TGI is 6.15 µM.

Q: And the GI50 [51]?
A: The GI50 was 6.03 µM.

Q: And the TGI [51]?
A: Its TGI is 27.4 µM.

Q: And the GI50 [52]?
A: Its GI50 is > 100 µM.

Q: What about the TGI [52] of the same compound?
A: The TGI was > 100 µM.

Q: What about the GI50 [53] of the same compound?
A: The GI50 was 7.13 µM.

Q: And the TGI [53]?
A: The TGI was 27.7 µM.

Q: What about the GI50 [54] of the same compound?
A: The GI50 was 17.4 µM.

Q: What about the TGI [54] of the same compound?
A: The TGI was 49.7 µM.

Q: What about the GI50 [55] of the same compound?
A: The GI50 was 2.56 µM.

Q: And the TGI [55]?
A: The TGI was 12.7 µM.

Q: And the GI50 [56]?
A: Its GI50 is 17.2 µM.

Q: What about the TGI [56] of the same compound?
A: The TGI was 35.5 µM.

Q: What about the GI50 [57] of the same compound?
A: The GI50 was 6.2 µM.

Q: What about the TGI [57] of the same compound?
A: The TGI was 19 µM.
